Experiments:
[1] = Acute toxicity in ip dosed mouse assessed as mortality measured for 24 hrs; type: organism-based; conditions: in vivo
Rattus norvegicus [2] = assay: Antiinflammatory activity in Wistar albino rat assessed as inhibition of carrageenan-induced paw edema at 0.32 mmol/kg, ip administered 1 hr prior to carrageenan challenge measured at 3 hrs by plethysmometric analysis relative to control; type: functional
Rattus norvegicus [3] = assay: Antiinflammatory activity in Wistar albino rat assessed as inhibition of carrageenan-induced paw edema at 0.08 mmol/kg, ip administered 1 hr prior to carrageenan challenge measured at 3 hrs by plethysmometric analysis relative to control; type: functional
Rattus norvegicus [4] = assay: Ulcerogenic effect in albino rat stomach assessed as ulcer index at 0.32 mmol/kg, po administered for 3 days measured 2 hrs post last dose; type: toxicity, organism-based; conditions: in vivo
Mus musculus = assay: Analgesic activity in albino mouse assessed as protection against p-benzoquinone-induced writhing at 0.32 mmol/kg, ip administered 1 hr prior to p-benzoquinone challenge measured for 30 mins relative to control; type: functional
Rattus norvegicus [5] = assay: Antiinflammatory activity in Wistar albino rat assessed as inhibition of carrageenan-induced paw edema at 0.16 mmol/kg, ip administered 1 hr prior to carrageenan challenge measured at 3 hrs by plethysmometric analysis relative to control; type: functional
Rattus norvegicus [6] = assay: Antiinflammatory activity in ip dosed Wistar albino rat assessed as inhibition of carrageenan-induced paw edema administered 1 hr prior to carrageenan challenge measured at 3 hrs by plethysmometric analysis; type: functional, organism-based
Homo sapiens = organism: Homo sapiens; assay: Selectivity ratio for COX1 (unknown origin) over COX2 (unknown origin)
Rattus norvegicus [7] = assay: Antiinflammatory activity in Wistar albino rat assessed as inhibition of carrageenan-induced paw edema at 0.32 mmol/kg, ip administered 1 hr prior to carrageenan challenge measured at 2 hrs by plethysmometric analysis relative to control; type: functional

SMILES	inhibition in vivo at 320 µmol/kg (Rattus norvegicus [2]) [%]	Activity (Mus musculus) [%]	inhibition in vivo at 320 µmol/kg (Rattus norvegicus [7]) [%]	also measured
COc1ccc(/N=C\c2cn(-c3ccc(Cl)cc3)nc2-c2ccc(OC)cc2)cc1	82.2	66.67	69.2	LD50 at 24 h [1]: 3250 µmol/kg; inhibition in vivo at 80 µmol/kg (Rattus norvegicus [3]): 37.5%; UI (Rattus norvegicus [4]): 14.32; inhibition in vivo at 160 µmol/kg (Rattus norvegicus [5]): 43%; IC50 (Rattus norvegicus [6]): 0.2 mmol/kg; Selectivity ratio (Homo sapiens): 1.17
COc1ccc(-c2[nH]c(-c3ccc(Cl)cc3)cc2-c2cn(-c3ccc(S(N)(=O)=O)cc3)nc2-c2ccc(C)cc2)cc1	34.2	50	49.7	
COc1ccc(-c2nn(-c3ccc(S(N)(=O)=O)cc3)cc2C(CC(=O)c2ccc(Cl)cc2)C(=O)c2ccc(F)cc2)cc1 (centres undefined)	68.1	33.33	72.2	
Cc1ccc(-c2nn(-c3ccc(S(N)(=O)=O)cc3)cc2/C=N\c2ccccc2)cc1	57.1		58.1	
Cc1ccc(-c2nn(-c3ccc(S(N)(=O)=O)cc3)cc2C=O)cc1	68.2	16.67	58.4	UI (Rattus norvegicus [4]): 9.6
Cc1ccc(-c2nn(-c3ccc(S(N)(=O)=O)cc3)cc2/C=C\C(=O)c2ccc(Cl)cc2)cc1	47.6		53.3	
COc1ccc(-c2nn(-c3ccc(S(N)(=O)=O)cc3)cc2-c2cc(-c3ccc(Cl)cc3)[nH]c2-c2ccc(F)cc2)cc1	55.9		55.7	
COc1ccc(-c2nn(-c3ccc(Cl)cc3)cc2-c2cc(-c3ccc(Cl)cc3)[nH]c2-c2ccc(F)cc2)cc1	61.9	33.33	53.7	UI (Rattus norvegicus [4]): 12
COc1ccc(C(=O)C(CC(=O)c2ccc(Cl)cc2)c2cn(-c3ccc(Cl)cc3)nc2-c2ccc(OC)cc2)cc1 (centres undefined)	9.61		0	
Cc1ccc(-c2nn(-c3ccc(S(N)(=O)=O)cc3)cc2/C=N\c2ccc(Cl)cc2)cc1	78.4	33.33	69.1	UI (Rattus norvegicus [4]): 5.8
COc1ccc2c(c1)c(CC(=O)O)c(C)n2C(=O)c1ccc(Cl)cc1				Selectivity ratio (Homo sapiens): 3.94
COc1ccc(-c2nn(-c3ccc(S(N)(=O)=O)cc3)cc2/C=N\c2ccccc2)cc1	55.4		38.5	
CCCCC1C(=O)N(c2ccccc2)N(c2ccccc2)C1=O [PHENYLBUTAZONE]	70.5	33.33	57.3	inhibition in vivo at 80 µmol/kg (Rattus norvegicus [3]): 20%; UI (Rattus norvegicus [4]): 30.2; inhibition in vivo at 160 µmol/kg (Rattus norvegicus [5]): 42.1%; IC50 (Rattus norvegicus [6]): 0.22 mmol/kg
COc1ccc(-c2nn(-c3ccc(S(N)(=O)=O)cc3)cc2C=O)cc1	81.5	16.67	83	UI (Rattus norvegicus [4]): 11.2
Cc1ccc(-c2nn(-c3ccc(Cl)cc3)cc2/C=N\c2ccc(Cl)cc2)cc1	49.2		48.3	
COc1ccc(-c2nn(-c3ccc(Cl)cc3)cc2/C=C\C(=O)c2ccc(Cl)cc2)cc1	66.4		53.7	
COc1ccc(/N=C\c2cn(-c3ccc(S(N)(=O)=O)cc3)nc2-c2ccc(OC)cc2)cc1	68.5	33.33	65.8	LD50 at 24 h [1]: 3250 µmol/kg; UI (Rattus norvegicus [4]): 16.4
Cc1ccc(-c2nn(-c3ccc(Cl)cc3)cc2-c2cc(-c3ccc(Cl)cc3)[nH]c2-c2ccc(F)cc2)cc1	21	33.33	38.3	UI (Rattus norvegicus [4]): 13
Cc1ccc(-c2nn(-c3ccc(Cl)cc3)cc2/C=N\c2ccccc2)cc1	49.3		40.1	

SMILES	inhibition in vivo at 320 µmol/kg (Rattus norvegicus [2]) [%]	Activity (Mus musculus) [%]	inhibition in vivo at 320 µmol/kg (Rattus norvegicus [7]) [%]	also measured
COc1ccc(C(=O)C(CC(=O)c2ccc(Cl)cc2)c2cn(-c3ccc(S(N)(=O)=O)cc3)nc2-c2ccc(OC)cc2)cc1 (centres undefined)	22.5		30.8	
COc1ccc(-c2nn(-c3ccc(Cl)cc3)cc2-c2cc(-c3ccc(Cl)cc3)[nH]c2-c2ccc(OC)cc2)cc1	20.7		10.5	
Cc1ccc(-c2nn(-c3ccc(S(N)(=O)=O)cc3)cc2-c2cc(-c3ccc(Cl)cc3)[nH]c2-c2ccc(F)cc2)cc1	66.7	16.67	75.4	LD50 at 24 h [1]: 3250 µmol/kg; inhibition in vivo at 80 µmol/kg (Rattus norvegicus [3]): 14%; UI (Rattus norvegicus [4]): 15; inhibition in vivo at 160 µmol/kg (Rattus norvegicus [5]): 43.6%; IC50 (Rattus norvegicus [6]): 0.21 mmol/kg; Selectivity ratio (Homo sapiens): 0.87
COc1ccc(C(=O)C(CC(=O)c2ccc(Cl)cc2)c2cn(-c3ccc(S(N)(=O)=O)cc3)nc2-c2ccc(C)cc2)cc1 (centres undefined)	61.1	50	53.8	
Cc1ccc(-c2nn(-c3ccc(S(N)(=O)=O)cc3)cc2C(CC(=O)c2ccc(Cl)cc2)C(=O)c2ccc(F)cc2)cc1 (centres undefined)	56.2	50	53.5	
COc1ccc(-c2nn(-c3ccc(S(N)(=O)=O)cc3)cc2/C=C\C(=O)c2ccc(Cl)cc2)cc1	56		55.6	
Cc1ccc(-c2nn(-c3ccc(Cl)cc3)cc2C=O)cc1	56		49.9	
COc1ccc(/N=C\c2cn(-c3ccc(S(N)(=O)=O)cc3)nc2-c2ccc(C)cc2)cc1	56.2		48.8	
COc1ccc(-c2nn(-c3ccc(S(N)(=O)=O)cc3)cc2/C=N\c2ccc(Cl)cc2)cc1	62.8	50	63	LD50 at 24 h [1]: 2440 µmol/kg
COc1ccc(/N=C\c2cn(-c3ccc(Cl)cc3)nc2-c2ccc(C)cc2)cc1	48.9	16.67	62	
COc1ccc(-c2[nH]c(-c3ccc(Cl)cc3)cc2-c2cn(-c3ccc(Cl)cc3)nc2-c2ccc(C)cc2)cc1	21.3		9.38	
COc1ccc(-c2nn(-c3ccc(Cl)cc3)cc2/C=N\c2ccccc2)cc1	72.6	16.67	57.2	
Cc1ccc(-c2nn(-c3ccc(Cl)cc3)cc2C(CC(=O)c2ccc(Cl)cc2)C(=O)c2ccc(F)cc2)cc1 (centres undefined)	19.4		25.9	
Cc1ccc(-c2nn(-c3ccc(Cl)cc3)cc2/C=C\C(=O)c2ccc(Cl)cc2)cc1	61.4		49.2	
COc1ccc(-c2nn(-c3ccc(Cl)cc3)cc2C(CC(=O)c2ccc(Cl)cc2)C(=O)c2ccc(F)cc2)cc1 (centres undefined)	37.8		19.8	
COc1ccc(C(=O)C(CC(=O)c2ccc(Cl)cc2)c2cn(-c3ccc(Cl)cc3)nc2-c2ccc(C)cc2)cc1 (centres undefined)	23.9		16.1	
COc1ccc(-c2nn(-c3ccc(S(N)(=O)=O)cc3)cc2-c2cc(-c3ccc(Cl)cc3)[nH]c2-c2ccc(OC)cc2)cc1	28.6		48.1	
COc1ccc(-c2nn(-c3ccc(Cl)cc3)cc2/C=N\c2ccc(Cl)cc2)cc1	72.6	33.33	69.6	UI (Rattus norvegicus [4]): 5.4; Selectivity ratio (Homo sapiens): 0.95
COc1ccc(-c2nn(-c3ccc(Cl)cc3)cc2C=O)cc1	57.6	33.33	63.1	
